Results published in patent publication US8592579B2, “Pyrrolotriazine kinase inhibitors” (Bristol-Myers Squibb Company, priority 2006, dated 2013).

What follows are compounds tested on IGF1R-Sal tumors (assay: IGF-1R Sal Tumor Model). Conditions: Mus musculus, 96 h, 6.25 mpk, qd, oral, 4 consecutive days, read-out: IGF-1R Sal % TGI.
Assay type: in vivo, nude mice
Procedure: A salivary gland adenocarcinoma that developed spontaneously in a transgenic mouse (MCI-19) was excised and cut into fragments of about 20 mg. Tumor fragments were implanted s.c. into the ventral thoracic region of a group of six female, athymic BALB/c nu/nu mice (Harley Sprague-Dawley, Indianapolis, Ind.), using a 13-gauge trocar. Once established, the salivary gland-derived tumor line was designated IGF 1R-Sal and was propagated as a tumor xenograft in nude mice. Tumors were passaged every 2 weeks, at which time the tumor reached f500 to 1,000 mm3 in size. […] Compounds were administered either on a bid schedule (oral doses 8 hours apart) or on a once a day schedule orally (qd) for 4 consecutive days. Tumors were measured at the start and end of treatment. Activity was measured as % tumor growth inhibition (% TGI). The % TGI was determined using the following formula (Ct−Tt)/(Ct−Co) where Ct is defined as the median tumor size of the control group at the end of treatment, Co is defined as the median tumor size of the control group at the start of treatment, and Tt is defined as the median tumor size of the treated group at the end of treatment.

| Compound | inhibition in vivo at 6.25 mg/kg [%] |
| --- | --- |
| CNC(=O)[C@@H]1CCCN1c1nc(Nc2cc(C3CC3)[nH]n2)c2cccn2n1 [Example 3, (S)-1-(4-(5-cyclopropyl-1H-pyrazol-3-ylamino)pyrrolo[1,2-f][1,2,4]triazin-2-yl)-N-methylpyrrolidine-2-carboxamide] | 80 |

Same assay, conditions: Mus musculus, 96 h, 25 mpk, bid, oral, 4 consecutive days, read-out: IGF-1R Sal % TGI

| Compound | inhibition in vivo at 25 mg/kg [%] |
| --- | --- |
| C[C@@]1(C(=O)Nc2cccnc2)CCCN1c1nc(Nc2cc(C3CC3)[nH]n2)c2cccn2n1 [Example 68] | 76 |
| Cc1cc(Nc2nc(N3CCC[C@@]3(C)C(=O)Nc3cccnc3)nn3cccc23)n[nH]1 [Example 85] | 76 |
| Cc1cc(NC(=O)[C@]2(C)CCCN2c2nc(Nc3cc(C4CC4)[nH]n3)c3cccn3n2)n[nH]1 [Example 135] | 25 |
| CC1(c2cc(Nc3nc(N4CCC[C@H]4C(=O)N[C@@H]4CCCNC4)nn4cccc34)n[nH]2)CC1 [Example 194, (S)-1-(4-(5-(1-methylcyclopropyl)-1H-pyrazol-3-ylamino)pyrrolo[1,2-f][1,2,4]triazin-2-yl)-N-((R)-piperidin-3-yl)pyrrolidine-2-carboxamide] | 52 |
| O=C(Nc1nccs1)[C@@H]1C[C@@H](F)CN1c1nc(Nc2cc(C3CC3)[nH]n2)c2cccn2n1 [Example 198, (2S,4R)-1-(4-(5-cyclopropyl-1H-pyrazol-3-ylamino)pyrrolo[1,2-f][1,2,4]triazin-2-yl)-4-fluoro-N-(thiazol-2-yl)pyrrolidine-2-carboxamide] | 124 |
| O=C(Nc1ccc(F)nc1)[C@@H]1C[C@@H](O)CN1c1nc(Nc2cc(C3CC3)[nH]n2)c2cccn2n1 [Example 217, (2S,4R)-1-(4-(5-cyclopropyl-1H-pyrazol-3-ylamino)pyrrolo[1,2-f][1,2,4]triazin-2-yl)-N-(6-fluoropyridin-3-yl)-4-hydroxypyrrolidine-2-carboxamide] | 0 |
| CC(C)n1cnc(Nc2nc(N3CCC[C@H]3C(=O)NC3CCCN(C)C3)nn3cccc23)c1 (stereo partly drawn) [Example 236, (S)-1-(4-(1-Isopropyl-1H-imidazol-4-ylamino)pyrrolo[1,2-f][1,2,4]triazin-2-yl)-N-((R)-1-methylpiperidin-3-yl)pyrrolidine-2-carboxamide] | 113 |

Same assay, conditions: Mus musculus, 96 h, 50 mpk, qd, oral, 4 consecutive days, read-out: IGF-1R Sal % TGI

| Compound | inhibition in vivo at 50 mg/kg [%] |
| --- | --- |
| O=C(Nc1cnccn1)[C@@H]1C[C@@H](F)CN1c1nc(Nc2cc(C3CC3)[nH]n2)c2cccn2n1 [Example 206] | 111 |
| C[C@@]1(C(=O)Nc2cnccn2)C[C@H](O)CN1c1nc(Nc2cc(C3CC3)[nH]n2)c2cccn2n1 [Example 227, (2S,4S)-1-(4-(5-cyclopropyl-1H-pyrazol-3-ylamino)pyrrolo[1,2-f][1,2,4]triazin-2-yl)-4-hydroxy-2-methyl-N-(pyrazin-2-yl)pyrrolidine-2-carboxamide] | 115 |
| CC(C)n1cnc(Nc2nc(N3C[C@@H](O)C[C@H]3C(=O)Nc3cnccn3)nn3cccc23)c1 [Example 245, (2S,4S)-4-hydroxy-1-(4-(1-isopropyl-1H-imidazol-4-ylamino)pyrrolo[L2-f][1,2,4]triazin-2-yl)-N-(pyrazin-2-yl)pyrrolidine-2-carboxamide] | 112 |
